PubChem BioAssay (NCI)
Where “and” joins values, the source holds several entries; their conditions need not be identical. Equal values may be shown once.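 All cell lines were grown in 96-well plates and treated with compound for 48 hours. Abbreviation: GI50, concentration required for 50% inhibition of growth. TGI denotes the concentration required for complete inhibition of growth.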

Assays:
Assay in all cases: inhibition of tumour cell growth, NCI panel, 48 h
MALME-3M melanoma = test system: MALME-3M melanoma
RXF 393 renal = test system: RXF 393 renal
SF-295 CNS = test system: SF-295 CNS
NCI-H460 lung = test system: NCI-H460 lung
KM12 colon = test system: KM12 colon
OVCAR-3 ovarian = test system: OVCAR-3 ovarian
TK-10 renal = test system: TK-10 renal
SNB-19 CNS = test system: SNB-19 CNS
U251 CNS = test system: U251 CNS
MDA-N = test system: MDA-N
SF-539 CNS = test system: SF-539 CNS
T-47D breast = test system: T-47D breast
SNB-75 CNS = test system: SNB-75 CNS
OVCAR-8 ovarian = test system: OVCAR-8 ovarian
NCI-H522 lung = test system: NCI-H522 lung
SK-OV-3 ovarian = test system: SK-OV-3 ovarian
UACC-62 melanoma = test system: UACC-62 melanoma
COLO 205 colon = test system: COLO 205 colon
M14 melanoma = test system: M14 melanoma

Row | SMILES | TGI (MALME-3M melanoma) | TGI (RXF 393 renal) | TGI (SF-295 CNS) | TGI (NCI-H460 lung) | TGI (KM12 colon) | TGI (OVCAR-3 ovarian) | TGI (TK-10 renal) | TGI (SNB-19 CNS) | TGI (U251 CNS) | TGI (MDA-N) | TGI (SF-539 CNS) | TGI (T-47D breast) | TGI (SNB-75 CNS) [µM] | TGI (OVCAR-8 ovarian) | TGI (NCI-H522 lung) | TGI (SK-OV-3 ovarian) | TGI (UACC-62 melanoma) | TGI (COLO 205 colon) | TGI (M14 melanoma) | GI50 (SK-OV-3 ovarian)
1 | CCn1c2ccccc2c2cc(NC(=O)c3c(NCCNCCO)nc(=O)[nH]c3C)ccc21 | > 100 µM | > 100 µM | > 100 µM | > 100 µM | > 100 µM | > 100 µM | > 100 µM | > 100 µM | > 100 µM | > 100 µM | > 100 µM | > 100 µM | > 100 | > 100 µM | > 100 µM | > 100 µM | > 100 µM | > 100 µM | > 100 µM | 
2 | COC(=O)[C@@H]1OC(C)(c2ccccc2)O[C@H]1C(=O)OC | > 100 µM | > 100 µM | > 100 µM | > 100 µM | > 100 µM | > 100 µM | > 100 µM | > 100 µM | > 100 µM | > 100 µM | > 100 µM | > 100 µM | > 100 | > 100 µM | > 100 µM | > 100 µM | > 100 µM | > 100 µM | > 100 µM | 
3 | Cc1cc(O)c2c(c1)CC(O)C1=C2C(=O)c2c(O)ccc(OC3CC(O)C(OC4CC(OC5CCC(O)C(C)O5)C(O)C(C)O4)C(C)O3)c2C1=O (stereo not given) | 2.1 µM | 3.02 µM | 7.47 µM | 4.85 µM | 4.46 µM | 2.16 µM | 4.03 µM | 3.38 µM | 3.22 µM | 3.74 µM | 3.62 µM | 8.38 µM | 7.73 | 3.51 µM | 2.52 µM | 6.71 µM | 3.05 µM | 2.95 µM | 3.04 µM | 
4 | COc1ccc(N=CN(C)C)c(C)c1 | 54 µM | 67.2 µM | 51.6 µM |  |  | 13.1 µM | > 100 µM | > 100 µM | 72.5 µM | > 100 µM | 82.1 µM | 68.4 µM | 63.9 | 83.8 µM | 8.08 µM | 82.8 µM | 42.6 µM | 28 µM | 55.5 µM | 
5 | c1cc(C[S+]2CCCC2)sc1C[S+]1CCCC1 | > 100 µM | > 100 µM | > 100 µM | > 100 µM | > 100 µM | > 100 µM | > 100 µM | > 100 µM | > 100 µM | > 100 µM | > 100 µM | > 100 µM | > 100 | > 100 µM | > 100 µM | > 100 µM | > 100 µM | > 100 µM | > 100 µM | 
6 | COC(=O)/C=C1/OC(c2ccc(C)cc2)=C(Cl)C1=O | 33.5 µM | 26.6 µM | 41.7 µM | 51 µM | 30.7 µM | 27.1 µM | 34.9 µM | 52.2 µM | 24.6 µM | 33.1 µM | 35.5 µM | 52.1 µM | 35.5 | 41.3 µM | 23.2 µM | 59.3 µM | 36.9 µM | 23.7 µM | 35.5 µM | 
7 | COc1cccc(Nc2nc(N)nc(N)c2N=O)c1 | > 100 µM | > 100 µM | 76.6 µM | 29.1 µM | > 100 µM | > 100 µM | 60.5 µM | > 100 µM | > 100 µM | > 100 µM | 35.7 µM | 24.3 µM | 91.1 | 40.9 µM | 29.5 µM | > 100 µM | 38.8 µM | 51.9 µM | 86.6 µM | 
8 | CC(C)NC(=O)OCc1c(COC(=O)NC(C)C)c(-c2ccc[n+](COC(=O)C(C)(C)C)c2)n2c1CCC2 | > 100 µM | > 92.8 µM | > 100 µM | > 100 µM | > 100 µM | > 100 µM | > 100 µM | > 100 µM | > 100 µM | > 100 µM | > 100 µM | > 100 µM | > 100 | > 100 µM | > 81.5 µM | > 100 µM | > 100 µM | > 100 µM | > 100 µM | 
9 | COC(=O)C1(C(=O)OC)CC2=C(S(=O)(=O)c3ccccc3)C[C@H](C#N)[C@H]2C1 | > 100 µM | > 100 µM | > 100 µM |  | > 100 µM |  | > 100 µM | > 100 µM | > 100 µM | > 100 µM | > 100 µM | > 100 µM | > 100 | > 100 µM | > 100 µM | > 100 µM | > 100 µM | > 100 µM | > 100 µM | 
10 | CN(C)CCCN1c2ccccc2CCc2cc([N+](=O)[O-])ccc21 | 33.8 µM and 32.9 µM | 32.8 µM and 26 µM | 45.1 µM and 28.4 µM | 41.7 µM and 29.8 µM | 71 µM and 35.1 µM | 48.4 µM and 34.8 µM | 69 µM and 27.8 µM | > 100 µM and 31.7 µM | 64.2 µM and 32.9 µM | 45.3 µM and 29.1 µM | 74.5 µM and 31.4 µM | 43.9 µM and 37.7 µM | 26.4 | 71.8 µM and 30 µM | 60.6 µM and 31 µM | > 100 µM and 32.6 µM | 29.2 µM and 27.5 µM | 60.1 µM and 32.4 µM | 38.1 µM and 31.1 µM | 38.7 µM and 17.3 µM
11 | CCOC(=O)c1cc2cc(C)cc(C(=O)c3ccc([N+](=O)[O-])cc3)c2[nH]1 | > 100 µM | > 100 µM | > 100 µM | > 100 µM | > 100 µM | > 100 µM | > 100 µM | > 100 µM | > 100 µM | > 100 µM | > 100 µM | > 100 µM | > 100 |  | > 100 µM | > 100 µM | > 100 µM | > 100 µM | > 100 µM | 
12 | CC1c2cc(c3c(c2O)CN([C@@H](C)C2CCCCC2)CO3)C(C)c2cc(c3c(c2O)CN([C@@H](C)C2CCCCC2)CO3)C(C)c2cc(c3c(c2O)CN([C@@H](C)C2CCCCC2)CO3)C(C)c2cc1c1c(c2O)CN([C@@H](C)C2CCCCC2)CO1 (stereo not given in full) | 2.98 µM | > 100 µM |  | 2.53 µM | 2.15 µM | 2.93 µM | 3.19 µM | 3.44 µM | 2.83 µM | 3.04 µM |  | 3.23 µM | 2.77 | 2.4 µM | 1.58 µM | 2.72 µM | 3.86 µM | 2.65 µM | > 23.7 µM | 
13 | O=C(COc1ccc(Cl)cc1Cl)N/N=C/C=C/c1ccc([N+](=O)[O-])o1 | 6.65 µM | 59.8 µM | > 100 µM | > 100 µM | > 100 µM | > 100 µM | 91.5 µM | 41.4 µM | > 100 µM | > 100 µM | > 100 µM | > 100 µM | 59.2 | 76.6 µM | 2.83 µM | 59.6 µM | > 100 µM |  | > 100 µM | 
